Source: ChEMBL document CHEMBL1201862, “PubChem BioAssay data set” (2004)
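Cultured in 96-well plates, cells were exposed to test compound for 48 hours across five concentrations. GI50 = concentration required for 50% inhibition of growth.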 Activity calls are given as the source filed them. Cut-off read from the data, not from the text of the source: active = GI50 up to about 1.1 µM and inactive = higher.

Experiments:
Test in all cases: NCI-60 cell line screen, 48 h
786-0 = tested on: 786-0
A498 = tested on: A498
A549 = tested on: A549
ACHN = tested on: ACHN
CAKI-1 = tested on: CAKI-1
CCRF-CEM = tested on: CCRF-CEM
COLO 205 = tested on: COLO 205
DLD-1 = tested on: DLD-1
DMS-114 = tested on: DMS-114
EKVX = tested on: EKVX
HCC 2998 = tested on: HCC 2998
HCT-116 = tested on: HCT-116
HCT-15 = tested on: HCT-15
HL-60 = tested on: HL-60
HOP-62 = tested on: HOP-62
HOP-92 = tested on: HOP-92
IGROV-1 = tested on: IGROV-1
K562 = tested on: K562
KM-20L2 = tested on: KM-20L2
LOX IMVI = tested on: LOX IMVI
LXFL 529 = tested on: LXFL 529
M14 = tested on: M14
M19-MEL = tested on: M19-MEL
MOLT-4 = tested on: MOLT-4
Malme-3M = tested on: Malme-3M
NCI-H226 = tested on: NCI-H226
NCI-H23 = tested on: NCI-H23
NCI-H460 = tested on: NCI-H460
NCI-H522 = tested on: NCI-H522
OVCAR-4 = tested on: OVCAR-4
OVCAR-5 = tested on: OVCAR-5
OVCAR-8 = tested on: OVCAR-8
RPMI-8226 = tested on: RPMI-8226
RXF 393 = tested on: RXF 393
RXF 631 = tested on: RXF 631
SF-268 = tested on: SF-268
SF-539 = tested on: SF-539
SK-MEL-28 = tested on: SK-MEL-28
SK-MEL-2 = tested on: SK-MEL-2
SK-MEL-5 = tested on: SK-MEL-5
SK-OV-3 = tested on: SK-OV-3
SN12C = tested on: SN12C
SNB-19 = tested on: SNB-19
SNB-75 = tested on: SNB-75
SNB-78 = tested on: SNB-78
SW-620 = tested on: SW-620
TK-10 = tested on: TK-10
U-251 = tested on: U-251
UACC-62 = tested on: UACC-62
UO-31 = tested on: UO-31
XF498 = tested on: XF498
DMS-273 = tested on: DMS-273
HT-29 = tested on: HT-29
KM12 = tested on: KM12
OVCAR-3 = tested on: OVCAR-3
SF-295 = tested on: SF-295
UACC-257 = tested on: UACC-257

## C/C=C(/I)CBr
786-0
  GI50: 17 µM (inactive)
A498
  GI50: > 10 µM (inactive)
A549
  GI50: 24.3 µM (inactive)
ACHN
  GI50: 21.8 µM (inactive)
CAKI-1
  GI50: 1.07 µM (active)
CCRF-CEM
  GI50: 3.78 µM (inactive)
COLO 205
  GI50: 13.2 µM (inactive)
DLD-1
  GI50: 15.4 µM (inactive)
DMS-114
  GI50: 12.6 µM (inactive)
EKVX
  GI50: 21.7 µM (inactive)
HCC 2998
  GI50: 15.9 µM (inactive)
HCT-116
  GI50: 13.9 µM (inactive)
HCT-15
  GI50: 18.2 µM
HL-60
  GI50: 4.49 µM (inactive)
HOP-62
  GI50: 22.5 µM (inactive)
HOP-92
  GI50: 15.3 µM (inactive)
IGROV-1
  GI50: 16 µM (inactive)
K562
  GI50: 5.15 µM (inactive)
KM-20L2
  GI50: 29.5 µM (inactive)
LOX IMVI
  GI50: 16.2 µM (inactive)
LXFL 529
  GI50: 13.7 µM (inactive)
M14
  GI50: 13.8 µM (inactive)
M19-MEL
  GI50: 14.5 µM (inactive)
MOLT-4
  GI50: 15.9 µM (inactive)
Malme-3M
  GI50: 16 µM (inactive)
NCI-H226
  GI50: 20.6 µM (inactive)
NCI-H23
  GI50: 16.7 µM (inactive)
NCI-H460
  GI50: 18.9 µM (inactive)
NCI-H522
  GI50: 2.03 µM (inactive)
OVCAR-4
  GI50: 17.3 µM (inactive)
OVCAR-5
  GI50: > 10 µM (inactive)
OVCAR-8
  GI50: 19.4 µM (inactive)
RPMI-8226
  GI50: 10.4 µM (inactive)
RXF 393
  GI50: 17.3 µM (inactive)
RXF 631
  GI50: 15.3 µM (inactive)
SF-268
  GI50: 23.6 µM (inactive)
SF-539
  GI50: 17 µM (inactive)
SK-MEL-28
  GI50: 21 µM (inactive)
SK-MEL-2
  GI50: 14.4 µM (inactive)
SK-MEL-5
  GI50: 15.5 µM (inactive)
SK-OV-3
  GI50: 30.8 µM (inactive)
SN12C
  GI50: 17.2 µM (inactive)
SNB-19
  GI50: 23.7 µM (inactive)
SNB-75
  GI50: > 10 µM (inactive)
SNB-78
  GI50: 29 µM (inactive)
SW-620
  GI50: 13.6 µM (inactive)
TK-10
  GI50: > 10 µM (inactive)
U-251
  GI50: > 10 µM (inactive)
UACC-62
  GI50: 15.5 µM (inactive)
UO-31
  GI50: 18.9 µM (inactive)
XF498
  GI50: 13.5 µM (inactive)

## CC12CCCCC1C(=O)C2(Cl)Cl (configuration not stated)
786-0
  GI50: 1.83 µM (inactive)
A498
  GI50: 3.94 µM (inactive)
A549
  GI50: 3.18 µM (inactive)
ACHN
  GI50: 2.51 µM (inactive)
CAKI-1
  GI50: 2.15 µM (inactive)
CCRF-CEM
  GI50: 1.42 µM (inactive)
DLD-1
  GI50: 1.97 µM (inactive)
DMS-273
  GI50: 2.21 µM (inactive)
EKVX
  GI50: 2.76 µM (inactive)
HCC 2998
  GI50: 1.79 µM (inactive)
HCT-116
  GI50: 1.69 µM (inactive)
HCT-15
  GI50: 3.35 µM
HL-60
  GI50: 1.76 µM (inactive)
HOP-62
  GI50: 1.6 µM (inactive)
HOP-92
  GI50: 1.69 µM (inactive)
HT-29
  GI50: 1.3 µM (inactive)
IGROV-1
  GI50: 2.96 µM (inactive)
K562
  GI50: 1.83 µM (inactive)
KM12
  GI50: 1.79 µM (inactive)
LOX IMVI
  GI50: 2.64 µM (inactive)
LXFL 529
  GI50: 2.28 µM (inactive)
M14
  GI50: 2.03 µM (inactive)
MOLT-4
  GI50: 1.84 µM (inactive)
Malme-3M
  GI50: 1.4 µM (inactive)
NCI-H23
  GI50: 2.39 µM (inactive)
NCI-H460
  GI50: 2.28 µM (inactive)
NCI-H522
  GI50: 1.89 µM (inactive)
OVCAR-3
  GI50: 1.77 µM (inactive)
OVCAR-4
  GI50: 3.49 µM (inactive)
OVCAR-5
  GI50: 2.56 µM (inactive)
OVCAR-8
  GI50: 2.04 µM (inactive)
RPMI-8226
  GI50: 1.31 µM (inactive)
RXF 393
  GI50: 3.72 µM (inactive)
RXF 631
  GI50: 1.92 µM (inactive)
SF-268
  GI50: 2.7 µM (inactive)
SF-295
  GI50: 1.66 µM (inactive)
SF-539
  GI50: 2.17 µM (inactive)
SK-MEL-28
  GI50: 1.8 µM (inactive)
SK-MEL-2
  GI50: 1.95 µM (inactive)
SK-MEL-5
  GI50: 1.83 µM (inactive)
SN12C
  GI50: 2.98 µM (inactive)
SNB-19
  GI50: 3.31 µM (inactive)
SNB-75
  GI50: 3.34 µM (inactive)
SNB-78
  GI50: 4.44 µM (inactive)
SW-620
  GI50: 2.05 µM (inactive)
TK-10
  GI50: 3.85 µM (inactive)
U-251
  GI50: 2.21 µM (inactive)
UACC-257
  GI50: 2.06 µM (inactive)
UACC-62
  GI50: 2.2 µM (inactive)
UO-31
  GI50: 2.18 µM (inactive)
XF498
  GI50: 2.07 µM (inactive)
